Reference: patent publication US7074801B1, “Nitrogen-containing condensed cyclic compound having a pyrazolyl group as a substituent group and pharmaceutical composition thereof” (Eisai Co., Ltd., priority 2001, dated 2006)
Counter-ions that a name gives are not always drawn.

Test system: STAT6
Assay: Inhibitory test on STAT6 activation: IL-4-induced alkali phosphatase STAT6 reporter in 293 cells stably expressing the STAT6 gene and STAT6 reporter gene
Assay type: cell-based
Settings: HEK293; Table 1; 1 ng/ml human recombinant IL-4, 16 hours, 293 cells with STAT6 reporter; read-out: Inhibitory activity IC50 (concentration at which the alkali phosphatase activity induced by IL-4 was inhibited by 50%)
Method: The inhibitory action of the present compound on activation of STAT6 was evaluated according to the following experiments.
1) Construction of a STAT6 Reporter Gene
An oligonucleotide of SEQ ID NO:1 in which three STAT6-binding regions on a human immunoglobulin germline E gene promoter had been linked was mixed with its complementary chain, thermally denatured and annealed, and 5′- and 3′-ends thereof were cleaved with restriction enzymes Kpn I (Code No. 1068A, Takara Shuzo) and Xba I (Code No. 1093A, Takara Shuzo) respectively, and the resulting fragment was cloned into a Kpn I/Xba I site of pUG-BGH-PLAP vector (described in Molecular Pharmacology, 49:860–873, 1996). To induce a basic transcriptional factor, a TK promoter region of herpes virus was cloned into an Xba I/Hind III (Code No. 1060A, Takara Shuzo) site of the pUG-BGH-PLAP vector. To obtain a stably expressing cell strain, a neomycin resistance gene (PGK-neo expression cassette) was integrated with an Sal I (Code No. 1080A, Takara Shuzo) of this vector. Cloning of the TK promoter and PGK-neo expression cassette was carried out according to Molecular Pharmacology, 49:860–873, 1996.
The underlined sites are a Kpn I recognition site and Xba I recognition site respectively. 2) Construction of an STAT6 Expression Vector
An oligonucleotide of SEQ ID NO:2 containing an initiation codon of STAT6 gene and an oligonucleotide of SEQ ID NO:3 containing a stop codon were used, and total RNA was prepared from human peripheral blood cells by using RNeasy Mini kit (Code No. 74104, OIAGEN). Then, cDNA was prepared by reverse transcription reaction using Takara RNA LA PCR kit (Code No. RR012A, Takara Shuzo) and then subjected to PCR reaction with primers of SEQ ID NOS:2 and 3, to amplify the STAT6 gene. • (SEQ ID NO:2) 5′-[…]-3′ The underlined site is an EcoR I recognition site. • (SEQ ID NO:3) 5′-[…]-3′ The underlined site is an Xho I recognition site.
The PCR product was digested with EcoR I (Code No. 1040A, Takara Shuzo) and Xho I (1094A, Takara Shuzo), and the digested fragment was isolated on an agarose gel. The isolated fragment was integrated into a vector fragment obtained by digesting pcDNA3.1 (+) (Code No. U790-20, Invitrogen) vector with EcoRI/Xho I.
3) Introduction of the Gene and Preparation of a Stably Expressing Cell Strain
Human fetal kidney-derived 293 cells (American Type Culture Collection), 3.0×10^5 cells, were spread on a Falcon tissue culture 6-well plate (Code No. 35-3046, Becton Dickinson) and cultured overnight. 1.5 μg of the prepared STAT6 reporter gene, 1.5 μg of the STAT6 gene and 20 μl of lipofectamine (Code No. 18324-012, GIBCO BRL) were mixed in 0.3 ml OPTI-MEM medium (Code No. 31985-070) and left at room temperature for 20 minutes. Thereafter, 1.2 ml OPTI-MEM medium was further added to the cells washed with OPTI-MEM medium not containing fetal bovine serum, and the cells were cultured for 2 hours. 1.5 ml medium containing fetal bovine serum was added thereto, and the cells were cultured for additional 19 hours. The medium was exchanged with a fresh one, and Geneticin (Code No. G-5013, SIGMA) was added at a concentration of 1 mg/ml, and the cells were cultured, and chemical-resistant cells were selected. The resulting chemical-resistant cells were floated in a medium containing 1 mg/ml Geneticin, then spread at a density of 0.5 cell/well on a 96-well microplate (Code No. 35-3072, Becton Dickinson) and cloned to give a clone expressing alkali phosphatase in response to IL-4.
4) Inhibitory Test on STAT6 Activation
The cells stably expressing the STAT6 gene and STAT6 reporter gene and expressing alkali phosphatase in response to IL-4 were spread at a density of 5000 cells/180 μl/well on a 96-well microplate (Code No. 35-3072, Becton Dickinson) and cultured overnight. […]

SMILES	IC50
O=C(c1ccc(-c2n[nH]cc2-c2ccc3ncc(-c4ccccn4)n3c2)cc1)N1CCOCC1 [Example 115, Morpholino(4-{4-[3-(2-pyridyl)imidazo[1,2-a]pyridin-6-yl]-1H-3-pyrazolyl}phenyl)methanone]	< 0.01 µM
O=C(NC1(c2ccc(F)cc2)CC1)c1ccc(-c2cnc3ccc(-c4cn[nH]c4)cn23)cc1F [Example 663, N1-[1-(4-Fluorophenyl)cyclopropyl]-2-fluoro-4-[6-(1H-4-pyrazolyl)imidazo[1,2-a]pyridin-3-yl]benzamide hydrochloride]	< 0.01 µM
CN(C(=O)N1CCOCC1)c1ccc(-c2n[nH]cc2-c2ccc3ncc(-c4ccccn4)n3c2)cc1 [Example 534, Morpholine-4-carboxylic acid methyl(4-[4-(3-pyridin-2-ylimidazo[1,2-a]pyridin-6-yl)-1H-pyrazol-3-yl]phenyl} amide]	< 0.01 µM
N#Cc1ccc(-c2cnc3ccc(-c4c[nH]nc4-c4ccc(F)cc4)cn23)cc1 [Example 77, 4-{6-[3-(4-Fluorophenyl)-1H-4-pyrazolyl]imidazo[1,2-a]-pyridin-3-yl}benzonitrile dihydrochloride]	< 0.01 µM
CC(=O)NCCCOc1ccc(-c2cnc3ccc(-c4c[nH]nc4-c4ccc(F)cc4)cn23)cc1 [Example 87, N-[3-(4-{6-[3-(4-Fluorophenyl)-1H-4-pyrazolyl]imidazo-[1,2-a]pyridin-3-yl}phenoxy)propyl]acetamide]	< 0.01 µM
N#CCCCS(=O)(=O)c1ccc(-c2cnc3ccc(-c4c[nH]nc4-c4ccc(F)cc4)cn23)s1 [Example 626, 4-[(5-{6-[3-(4-Fluorophenyl)-1H-4-pyrazolyl]imidazo[1,2-a]pyridin-3-yl}-2-thienyl)sulfonyl]butane nitrile hydrochloride]	< 0.01 µM

Further lines, results first:

IC50	SMILES
< 0.01 µM	Fc1ccc(-c2n[nH]cc2-c2ccc3ncc(-c4noc(C(F)F)n4)n3c2)c(F)c1 [Example 589, 6-[3-(2,4-Difluorophenyl)-1H-4-pyrazolyl]-3-(5-difluoromethyl-[1,2,4]oxadiazol-3-yl)-imidazo[1,2-a]-pyridine trihydrochloride]
< 0.01 µM	CSc1nnc(-c2cnc3ccc(-c4c[nH]nc4-c4ccc(F)cc4)cn23)o1 [Example 555, 6-[3-(4-Fluorophenyl)-1H-pyrazol-4-yl]-3-(5-methylsulfanyl[1,3,4]oxadiazol-2-yl)imidazo[1,2-a]pyridine]
0.01 to 0.1 µM	COc1ccc(-c2ncnc3ccc(-c4c[nH]nc4-c4ccc(F)cc4)cc23)cc1 [Example 254, 6-[3-(4-Fluorophenyl)-1H-4-pyrazolyl]-4-[4-(methoxyphenyl)-quinazolinedihydrochloride]
< 0.01 µM	COc1ccc(-c2n[nH]cc2-c2ccc3ncc(-c4noc(C5CC5)n4)n3c2)c(F)c1 [Example 580, 3-(5-Cyclopropyl-[1,2,4]oxadiazol-3-yl)-6-[3-(2-fluoro-4-methoxyphenyl)-1H-4-pyrazolyl]-imidazo[1,2-a]pyridine trihydrochloride]

Same assay, conditions: HEK293; Table 2; 1 ng/ml human recombinant IL-4, 16 hours, 293 cells with STAT6 reporter; read-out: Inhibitory activity IC50 (concentration at which the alkali phosphatase activity induced by IL-4 was inhibited by 50%)

SMILES	IC50
c1ccc(N2CCN(c3ncnc4ccc(-c5cn[nH]c5)cc34)CC2)nc1 [Example 936, 6-(1H-Pyrazol-4-yl)-4-(4-pyridin-2-yl-piperazin-1-yl)quinazoline tri-trifluoroacetate]	< 0.01 µM
CS(=O)(=O)c1cc(F)cc(N2CCN(c3ncnc4ccc(-c5cn[nH]c5)cc34)CC2)c1 [Example 845, 4-[4-(3-Fluoro-5-methylsulfonylphenyl)piperazin-1-yl]-6-(1H-4-pyrazolyl)quinazoline dihydrochloride]	< 0.01 µM
O=C(NCc1cccc(OC(F)F)c1)c1ccc(-c2cnc3ccc(-c4cn[nH]c4)cn23)cc1F [Example 706, N1-[3-(Difluoromethoxy)benzyl]-2-fluoro-4-[6-(1H-4-pyrazolyl)imidazo[1,2-a]pyridin-3-yl]benzamide hydrochloride]	< 0.01 µM
CS(=O)(=O)c1ccc(OC2CCN(c3ccnc4ccc(-c5cn[nH]c5)cc34)CC2)c(F)c1 [Example 1032, 4-[4-(2-Fluoro-4-methylsulfonylphenoxy)-piperidin-1-yl]-6-(1H-pyrazol-4-yl)quinoline trihydrochloride]	0.01 to 0.1 µM
O=S(=O)(c1cccc(N2CCN(c3ncnc4ccc(-c5cn[nH]c5)cc34)CC2)c1)N1CCCCC1 [Example 955, 4-{4-[3-(Piperidine-1-sulfonyl)phenyl]piperazin-1-yl}-6-(1H-pyrazol-4-yl)quinazoline tri-trifluoroacetate]	< 0.01 µM
CN(C)S(=O)(=O)c1ccc(N2CCN(c3ncnc4ccc(-c5cn[nH]c5)cc34)CC2)cc1 [Example 921, N,N-Dimethyl-4-{4-[6-(1H-pyrazol-4-yl)quinazolin-4-yl]piperazin-1-yl} benzene sulfonamide]	< 0.01 µM

Next, values leading:

IC50	SMILES
< 0.01 µM	Cn1cnc(-c2ncnc3ccc(-c4c[nH]nc4-c4c(F)cccc4F)cc23)c1 [Example 911, 6-[3-(2,6-Difluorophenyl)-1H-pyrazol-4-yl]-4-(1-methyl-1H-imidazol-4-yl) quinazoline]
0.01 to 0.1 µM	CS(=O)(=O)c1ccc(-c2ncnc3ccc(-c4c[nH]nc4-c4ccc(F)cc4)cc23)o1 [Example 900, 6-[3-(4-Fluorophenyl)-1H-pyrazol-4-yl]-4-(5-methylsulfonylfuran-2-yl) quinazoline]
0.01 to 0.1 µM	N#Cc1cc(N2CCN(c3ncnc4ccc(-c5cn[nH]c5)cc34)CC2)ccc1F [Example 1007, 2-Fluoro-5-{4-[6-(1H-4-pyrazolyl)-4-quinazolinyl]piperazin-1-yl}benzonitrile hydrochloride]
0.01 to 0.1 µM	Cc1n[nH]cc1-c1ccc2ncnc(N3CCC(Oc4cccc(C#N)c4)CC3)c2c1 [Example 876, 3-{1-[6-(3-Methyl-1H-pyrazol-4-yl)quinazolin-4-yl]piperidin-4-yloxy} benzonitrile trihydrochloride]
< 0.01 µM	O=S(=O)(c1ccc(-c2ncnc3ccc(-c4c[nH]nc4-c4ccc(F)cc4F)cc23)s1)C1CC1 [Example 903, 4-(5-Cyclopropanesulfonylthiophen-2-yl)-6-[3-(2,4-difluorophenyl)-1H-pyrazol-4-yl] quinazoline]
0.01 to 0.1 µM	CS(=O)(=O)c1ccc(-c2ncnc3ccc(-c4c[nH]nc4-c4ccc(OC(F)(F)F)cc4)cc23)s1 [Example 892, 4-(5-Methylsulfonylthiophen-2-yl)-6-[3-(4-trifluoromethoxyphenyl)-1H-pyrazol-4-yl] quinazoline]
< 0.01 µM	Cc1cccc(N2CCN(c3ncnc4ccc(-c5cn[nH]c5)cc34)CC2)c1 [Example 934, 6-(1H-Pyrazol-4-yl)-4-(4-m-tolylpiperazin-1-yl)-quinazoline tri-trifluoroacetate]
< 0.01 µM	CS(=O)(=O)c1cnc(-c2ncnc3ccc(-c4c[nH]nc4-c4ccc(F)cc4)cc23)s1 [Example 897, 6-[3-(4-Fluorophenyl)-1H-pyrazol-4-yl]-4-(5-methylsulfonylthiazol-2-yl) quinazoline]
0.1 to 1 µM	CS(=O)(=O)c1ccc(-c2ncnc3ccc(-c4c[nH]nc4[N+](=O)[O-])cc23)s1 [Example 901, 4-(5-Methylsulfonylthiophen-2-yl)-6-(3-nitro-1H-pyrazol-4-yl) quinazoline]
